{"source": "patent US9708370B2", "about": "“Azapeptides as CD36 binding compounds” (VALORISATION-RECHERCHE, LIMITED PARTNERSHIP, priority 2007, dated 2017)", "target": "human GHS-R1a (Homo sapiens (Human), UniProt Q92847)", "sequence (Q92847 whole entry)": "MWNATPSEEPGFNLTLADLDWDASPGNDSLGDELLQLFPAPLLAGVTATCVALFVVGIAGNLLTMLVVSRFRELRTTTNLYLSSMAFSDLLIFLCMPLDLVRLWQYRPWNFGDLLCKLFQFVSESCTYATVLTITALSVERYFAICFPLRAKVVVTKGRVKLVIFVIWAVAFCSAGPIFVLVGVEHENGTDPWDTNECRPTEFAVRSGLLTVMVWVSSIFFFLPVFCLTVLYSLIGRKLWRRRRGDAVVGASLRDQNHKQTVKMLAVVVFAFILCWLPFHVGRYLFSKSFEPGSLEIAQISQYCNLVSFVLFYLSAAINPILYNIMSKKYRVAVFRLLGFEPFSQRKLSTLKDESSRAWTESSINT", "assay": "GHS-R1a binding assay, competition with 125I-ghrelin on membranes of LLC-PK1 cells expressing human GHS-R1a", "experimental": "Rat ghrelin was radio iodinated with Na^125I using the lodo-Beads iodination reagent (Pierce #28665). Briefly, an lodo-bead was incubated with 2 mCi of Na^125I (Amersham) in 100 μL of 50 mM sodium phosphate buffer, pH 7.0 for 5 min at 22° C. The reaction was started by adding 20 nmol of the peptide (1 mM in 0.1 M acetic acid). The tube was incubated for 10 min at 22° C. The iodination was terminated by adding 1 mL of 0.1% TFA. The mono-iodinated peptide was purified by reverse-phase HPLC using a Vydac C18 ([…]) column (30 cm×0.39 cm) in combination with a binary elution system of (A) 0.1% TFA in H2O and (B) 0.1% TFA, 10% H2O, 90% acetonitrile. Fractions of 0.5 mL were collected and analyzed by its radioactive content.\nCells (1.4×10^6) were plated in 100 mm plates and transfected 24 h later with pCDNA3.1-hGHS-R1a (UMR cDNA Resource Center #GHSR0A0000) following the CaHPO4 precipitation method. Briefly, 40 μg of plasmid DNA was diluted in 500 μL of sterile H2O and added to an equal volume of a 4× CaCl2, pH 7.9 solution (2 mM Tris-HCl, 0.2 mM EDTA, 500 mM CaCl2). The mixture was then added slowly with air bubbles to 1 mL of 2× Hepes-buffered saline, pH 7.1 (50 mM Hepes, 280 mM NaCl, 1.5 mM Na2HPO4). After 30 min at room temperature, 1 mL was distributed evenly over the cells and let overnight. The medium was changed the next morning and the membrane preparation was made two days later.\nCells were washed twice with PBS and once with ice-cold homogenization buffer (50 mM Tris-HCl, pH 7.3, 5 mM MgCl2, 2.5 mM EDTA, 30 μg/ml bacitracin). Cells were scraped and harvested in 1.5 mL tubes. Cells were then lysed by temperature shock with two freeze/thaw cycles in liquid nitrogen. The tubes were centrifuged at 14000 g for 20 min. Pellets were resuspended in homogenization buffer and stored at −80° C. until used. Total protein concentrations were determined with the BCA protein assay kit (Pierce).\nCompetition experiments were performed by incubating 50 μg of LLC-PK1 membranes expressing human GHS-R1a with 15 fmol of ^125I-Ghrelin and increasing concentrations of unlabeled ghrelin or with increasing concentrations of azapeptides derivatives in 0.5 mL of binding buffer. Bound radiolabelled ligand was separated from free by filtration on Whatman GF/C filters pretreated with a 1% polyethylenimine solution. Filters were washed with 2×3 mL of washing buffer (50 mM Tris-HCl, pH 7.3, 10 mM MgCl2, 2.5 mM EDTA, 0.015% Triton X-100). Filters were counted in a LKB gamma counter. Curves were analyzed using Prism software (GraphPad Software Inc).", "key": {"[1]": {"settings": "Table 5, read-out: IC50 Binding GHS-R1a"}, "[2]": {"settings": "Table 4, LLCPK-1 membranes overexpressing GHS-R1a, radioiodinated (1-28) rat ghrelin as tracer, read-out: EC50 (text: IC50 values from competition curves in GHS-R1a radioreceptor assay)"}}, "note": "Read-outs that look alike come from different tables or passages of the source. Starred links: 1 amine or outer side, 2 acyl side, 3 side chain; linkers in the order of their positions; H or OH if unused. Non-standard residues stand in square brackets, D forms with d. Residues, ends and D or L forms follow the SMILES beside them. *: point of attachment. X4 = O=C(N(Cc1ccc(-c2ccccc2)cc1)N[*:1])[*:2]; azaTyr = O=C(N(Cc1ccc(O)cc1)N[*:1])[*:2]; X3 = O=C(N(Cc1cccc2ccccc12)N[*:1])[*:2]; azaPhe = O=C(N(Cc1ccccc1)N[*:1])[*:2]; azaLeu = CC(C)CN(N[*:1])C(=O)[*:2]; azaPro = O=C(N1CCCN1[*:1])[*:2]; AzaAla = CN(N[*:1])C(=O)[*:2]; X5 = O=C(CC1CNc2ccccc21)*; azaGly = NNC(=O)O"}
{"compound": "C[C@H](NC(=O)N(Cc1ccccc1)NC(=O)[C@@H](N)Cc1cnc[nH]1)C(=O)N[C@@H](Cc1c[nH]c2ccccc12)C(=O)N[C@H](C)C(=O)N[C@@H](CCCCN)C(N)=O", "note": "[CP-1A(ii), His-azaPhe-Ala-Trp-D-Ala-Lys-NH2] (H-H[azaPhe]AW[dA]K-NH2)", "values": [{"measurement": "IC50", "setting": "[1]", "value": "> 10", "unit": "µM"}]}
{"compound": "C[C@H](NC(=O)[C@H](C)NC(=O)N(Cc1ccc(O)cc1)NC(=O)[C@@H](N)Cc1cnc[nH]1)C(=O)N[C@H](Cc1ccccc1)C(=O)N[C@@H](CCCCN)C(N)=O", "note": "[CP-1B(iii), (D/L)His-azaTyr-Ala-Ala-D-Phe-Lys-NH2] (H-H[azaTyr]AA[dF]K-NH2)", "values": [{"measurement": "IC50", "setting": "[1]", "value": "> 10", "unit": "µM"}]}
{"compound": "C[C@H](NC(=O)[C@@H](Cc1ccccc1)NC(=O)[C@H](Cc1c[nH]c2ccccc12)NC(=O)NNC(=O)[C@@H](Cc1c[nH]c2ccccc12)NC(=O)[C@@H](N)Cc1cnc[nH]1)C(N)=O", "note": "[CP-2A(i), His-D-Trp-azaGly-Trp-D-Phe-Ala-NH2] (H-H[dW][azaGly]W[dF]A-NH2)", "values": [{"measurement": "IC50", "setting": "[1]", "value": 45, "unit": "µM"}]}
{"compound": "C[C@@H](NC(=O)[C@H](Cc1c[nH]c2ccccc12)NC(=O)NNC(=O)[C@@H](Cc1c[nH]c2ccccc12)NC(=O)[C@@H](N)Cc1cnc[nH]1)C(=O)N[C@@H](CCCCN)C(N)=O", "note": "[CP-2A(ii), His-D-Trp-azaGly-Trp-D-Ala-Lys-NH2] (H-H[dW][azaGly]W[dA]K-NH2)", "values": [{"measurement": "IC50", "setting": "[1]", "value": "> 10", "unit": "µM"}]}
{"compound": "C[C@H](NC(=O)NNC(=O)[C@@H](Cc1c[nH]c2ccccc12)NC(=O)[C@@H](N)Cc1cnc[nH]1)C(=O)N[C@H](Cc1ccccc1)C(=O)N[C@@H](CCCCN)C(N)=O", "note": "[CP-2A(iii), His-D-Trp-azaGly-Ala-D-Phe-Lys-NH2] (H-H[dW][azaGly]A[dF]K-NH2)", "values": [{"measurement": "IC50", "setting": "[1]", "value": "> 10", "unit": "µM"}]}
{"compound": "C[C@@H](NC(=O)[C@@H](N)Cc1cnc[nH]1)C(=O)NNC(=O)N[C@@H](Cc1c[nH]c2ccccc12)C(=O)N[C@H](Cc1ccccc1)C(=O)N[C@@H](CCCCN)C(N)=O", "note": "[CP-2A(iv), His-D-Ala-azaGly-Trp-D-Phe-Lys-NH2] (H-H[dA][azaGly]W[dF]K-NH2)", "values": [{"measurement": "IC50", "setting": "[1]", "value": "> 10", "unit": "µM"}]}
{"compound": "CC(C)CN(NC(=O)[C@@H](C)NC(=O)[C@@H](N)Cc1cnc[nH]1)C(=O)N[C@@H](Cc1c[nH]c2ccccc12)C(=O)N[C@H](Cc1ccccc1)C(=O)N[C@@H](CCCCN)C(N)=O", "note": "[CP-2B (iv), His-D-Ala-azaLeu-Trp-D-Phe-Lys-NH2] (H-H[dA][azaLeu]W[dF]K-NH2)", "values": [{"measurement": "IC50", "setting": "[1]", "value": "> 10", "unit": "µM"}]}
{"compound": "C[C@H](NC(=O)[C@@H](C)NC(=O)[C@@H](N)Cc1cnc[nH]1)C(=O)NN(Cc1ccccc1)C(=O)N[C@H](Cc1ccccc1)C(=O)N[C@@H](CCCCN)C(N)=O", "note": "[CP-3 (iii), His-D-Ala-Ala-azaPhe-D-Phe-Lys-NH2] (H-H[dA]A[azaPhe][dF]K-NH2)", "values": [{"measurement": "IC50", "setting": "[1]", "value": "> 10", "unit": "µM"}]}
{"compound": "C[C@H](N)C(=O)N[C@H](Cc1c[nH]c2ccccc12)C(=O)N[C@@H](C)C(=O)NN(Cc1ccccc1)C(=O)N[C@H](Cc1ccccc1)C(=O)N[C@@H](CCCCN)C(N)=O", "note": "[CP-3 (iv), Ala-D-Trp-Ala-AzaPhe-D-Phe-Lys-NH2] (H-A[dW]A[azaPhe][dF]K-NH2)", "values": [{"measurement": "IC50", "setting": "[1]", "value": "> 10", "unit": "µM"}]}
{"compound": "C[C@H](NC(=O)[C@@H](Cc1ccccc1)NC(=O)N(Cc1ccccc1)NC(=O)[C@H](C)NC(=O)[C@@H](Cc1c[nH]c2ccccc12)NC(=O)[C@@H](N)Cc1cnc[nH]1)C(N)=O", "note": "[CP-3(i), His-D-Trp-Ala-AzaPhe-D-Phe-Ala-NH2] (H-H[dW]A[azaPhe][dF]A-NH2)", "values": [{"measurement": "IC50", "setting": "[1]", "value": "> 10", "unit": "µM"}]}
{"compound": "C[C@H](NC(=O)[C@@H](Cc1c[nH]c2ccccc12)NC(=O)[C@@H](N)Cc1cnc[nH]1)C(=O)NN(Cc1ccccc1)C(=O)N[C@H](C)C(=O)N[C@@H](CCCCN)C(N)=O", "note": "[CP-3(ii), His-D-Trp-Ala-azaPhe-D-Ala-Lys-NH2] (H-H[dW]A[azaPhe][dA]K-NH2)", "values": [{"measurement": "IC50", "setting": "[1]", "value": "> 10", "unit": "µM"}]}
{"compound": "NCCCC[C@H](NC(=O)[C@@H](Cc1ccccc1)NC(=O)[C@H](Cc1c[nH]c2ccccc12)NC(=O)N1CCCN1C(=O)[C@@H](Cc1c[nH]c2ccccc12)NC(=O)[C@@H](N)Cc1cnc[nH]1)C(N)=O", "note": "[CP-AP_4, His-D-Trp-azaPro-Trp-D-Phe-Lys-NH2] (H-H[dW][azaPro]W[dF]K-NH2)", "values": [{"measurement": "IC50", "setting": "[1]", "value": "> 10", "unit": "µM"}]}
{"compound": "NCCCC[C@H](NC(=O)[C@@H](Cc1ccccc1)NC(=O)C1CCCN1C(=O)NNC(=O)[C@@H](Cc1c[nH]c2ccccc12)NC(=O)[C@@H](N)Cc1cnc[nH]1)C(N)=O", "note": "(stereo partly drawn) [CP-AzaGly-Pro, His-D-Trp-azaGly-Pro-D-Phe-Lys-NH2]", "values": [{"measurement": "IC50", "setting": "[1]", "value": "> 10", "unit": "µM"}]}
{"compound": "CN(NC(=O)[C@@H](Cc1c[nH]c2ccccc12)NC(=O)[C@@H](N)Cc1cnc[nH]1)C(=O)N[C@@H](Cc1c[nH]c2ccccc12)C(=O)N[C@H](Cc1ccccc1)C(=O)N[C@@H](CCCCN)C(N)=O", "note": "[DBG145, His-D-Trp-azaAla-Trp-D-Phe-Lys-NH2] (H-H[dW][AzaAla]W[dF]K-NH2)", "values": [{"measurement": "IC50", "setting": "[2]", "value": 0.809, "unit": "µM"}]}
{"compound": "CN(NC(=O)[C@@H](Cc1c[nH]c2ccccc12)NC(=O)CC1CNc2ccccc21)C(=O)N[C@@H](Cc1c[nH]c2ccccc12)C(=O)N[C@H](Cc1ccccc1)C(=O)N[C@@H](CCCCN)C(N)=O", "note": "(stereo partly drawn) [DBG168-8, In—CO-D-Trp-azaAla-Trp-D-Phe-Lys-NH2] (X5-[dW][AzaAla]W[dF]K-NH2)", "values": [{"measurement": "IC50", "setting": "[2]", "value": 0.514, "unit": "µM"}]}
{"compound": "C[C@H](NC(=O)[C@@H](Cc1c[nH]c2ccccc12)NC(=O)[C@@H](N)Cc1cnc[nH]1)C(=O)NN(Cc1ccc(-c2ccccc2)cc1)C(=O)N[C@H](Cc1ccccc1)C(=O)N[C@@H](CCCCN)C(N)=O", "note": "[DBG253-3, His-D-Trp-Ala-azaBip-D-Phe-Lys-NH2] (H-H[dW]A[X4][dF]K-NH2)", "values": [{"measurement": "IC50", "setting": "[2]", "value": 1.34, "unit": "µM"}]}
{"compound": "C[C@H](NC(=O)[C@@H](Cc1c[nH]c2ccccc12)NC(=O)[C@@H](N)Cc1cnc[nH]1)C(=O)NN(Cc1cccc2ccccc12)C(=O)N[C@H](Cc1ccccc1)C(=O)N[C@@H](CCCCN)C(N)=O", "note": "[DBG253-6, His-D-Trp-Ala-azaNal-1-D-Phe-Lys-NH2] (H-H[dW]A[X3][dF]K-NH2)", "values": [{"measurement": "IC50", "setting": "[2]", "value": 0.723, "unit": "µM"}]}
